Experimental data published in PubChem BioAssay (NCI).
“And” between values parts separate entries of the source, which are not always exact repeats. Identical values can stand only once.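 1) Cells in 96-well plates. 2) Compound, 48 h, 5 concentrations. 3) Linear interpolation between surrounding doses. 4) Unreached endpoint = highest concentration. GI50 marks 50% less growth. TGI denotes the concentration required for complete inhibition of growth.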 Where a SMILES comes first, the peptide text is derived from it. Bridges are numbered along the chain shown (N, C = ends). [ ]: non-standard residue; d: D form. The star is where a group is joined. ξ: configuration not given here. ξDab(CH2SO3H) = NC(CCNCS(=O)(=O)O)C(=O)O; Heptanoyl(6-Me) = CC(C)CCCCC(=O)*; Dab = NCC[CH](N)C(=O)O

How the values were obtained:
Assay in all cases: NCI-60 cell line screen, 48 h
UO-31 renal = test system: UO-31 renal
MDA-MB-231 breast = test system: MDA-MB-231 breast
SK-MEL-5 melanoma = test system: SK-MEL-5 melanoma
K-562 leukemia = test system: K-562 leukemia
NCI-H522 lung = test system: NCI-H522 lung
RXF 393 renal = test system: RXF 393 renal
UACC-62 melanoma = test system: UACC-62 melanoma
ACHN renal = test system: ACHN renal

Compound	GI50 (UO-31 renal)	TGI (UO-31 renal) [µM]	GI50 (MDA-MB-231 breast) [µM]	TGI (MDA-MB-231 breast) [µM]	GI50 (SK-MEL-5 melanoma) [µM]	TGI (SK-MEL-5 melanoma) [µM]	GI50 (K-562 leukemia) [µM]	TGI (K-562 leukemia) [µM]	GI50 (NCI-H522 lung) [µM]	TGI (NCI-H522 lung) [µM]	GI50 (RXF 393 renal) [µM]	TGI (RXF 393 renal) [µM]	GI50 (UACC-62 melanoma) [µM]	TGI (UACC-62 melanoma)	GI50 (ACHN renal) [µM]	TGI (ACHN renal) [µM]
Cn1nc(C(F)(F)F)cc1-c1c[nH]c(OCc2ccc(Cl)cc2)c(-c2ccc(Cl)c(C(F)(F)F)c2)c1=O	1.05 µM	3.56	1.13	3.51	0.568	1.34	0.724	> 50	0.552	6.15	1.13	3.4	0.516	2.29 µM	1.28	4.23
C#CCN(Cc1nc2cc(C(F)(F)F)ccc2nc1-c1ccccc1)c1ccc(C)cc1	13.2 µM	45.5	9.39	40.4	17	> 32.4	33	> 100	3.3	26	4.18	28	7.32	27.9 µM	–	> 33.5
Cc1ccc2c(c1)c(Sc1ccc(C(=O)NO)cc1)c1n2CN(C)CC1	2.15 µM	9.1	1.51	4.13	2.23	6.27	3.17	11.9	1.16	2.61	1.74	5.86	1.51	3.25 µM	2.68	8.63
CCc1nc(N)nc(N)c1-c1ccc2nnn(O)c2c1	–	> 100	–	> 100	–	> 100	–	> 100	–	> 100	–	> 100	–	> 100 µM	–	> 100
N=C(N)SCc1c2ccccc2c(CSC(=N)N)c2ccccc12	14.1 µM	34.5	12	45.1	6.03	20.2	3.51	17.9	3.23	30.7	8.22	23.7	3.59	20.3 µM	3.99	18.5
COCCNc1ccc2c3c(cccc13)C(=O)N(CCN(C)C)C2=O	4.89 µM	19.5	12.9	> 25	4.76	13.1	4.66	11.5	4.06	12.4	5.07	16.9	4.54	14.4 µM	4.64	> 25
CC1=NN(c2ccc(S(=O)(=O)O)cc2)C(=O)/C1=C/c1ccc(Cl)cc1	–	> 100	–	> 100	–	> 100	–	> 100	–	> 100	–	> 100	–	> 100 µM	–	> 100
CCCc1cc(=O)n2c(C(=O)Nc3cccc(C(=O)OCC)c3)c(C(=O)Nc3ccc(F)cc3)sc2n1	7.27 µM	42.6	1.6	7.2	75.1	> 140	60.3	> 140	65	> 140	5.3	13.4	48.4	> 140 µM	4.01	109
COc1ccc(Cn2cc3c(c2-c2ccccc2)CCc2cnoc2-3)cc1OC	2.24 µM	> 100	2.13	> 100	0.49	10.4	0.33	> 100	0.229	0.801	1.68	> 100	0.581	> 100 µM	2.83	> 100
C[C@@H]1CCC([C@@H](C)[C@H]2CC[C@H]3[C@@H]4CC[C@H]5C[C@@H](O)CC[C@]5(C)[C@H]4CC[C@]23C)=NC1	–	46.3	–	> 84.6	–	42.8	–	> 100	–	30.7	–	> 100	–	> 70.8 µM	–	> 61.5
CCCCCCCCC/C(=N\NC(=O)c1ccncc1)c1ccc(O)c(O)c1O	0.0745 µM	> 29.3	0.116	31.5	0.139	0.494	0.498	> 100	0.418	23.1	0.168	5.2	0.188	3.3 µM	0.0734	> 100
N/C(=N/N=C/c1ccccc1)N/N=C\c1ccccc1	5.1 µM	78.3	10.5	> 100	3.38	13.3	3.35	> 100	5.23	> 100	2.46	8.48	7.92	28.6 µM	6.4	> 100
COc1ccc(Nc2cc(C)nc(NCc3ccccc3)n2)cc1	2.77 µM	15.9	3.45	16.1	1.36	2.84	2.69	15.3	3.62	19.2	3.07	14.4	2.84	14.4 µM	4.44	17.7
C[C@]12CC[C@@H]3c4cc(O)c(O)cc4CC[C@H]3[C@@H]1CC[C@@H]2O	5.68 µM	77.8	4.61	52.5	3.54	16.1	0.499	> 100	0.987	3.83	2.44	19	3.9	29.1 µM	8.94	54.5
C=C1C(=O)O[C@H]2C[C@@H]1CC/C(C)=C/CC/C(C)=C/CC[C@@]2(C)O	30.9 µM	87.4	25.7	53.7	37.7	> 100	20	50.2	27.4	79	> 100	> 100	44.1	> 100 µM	55.3	> 100
COc1cccc(/C=N/NC(=O)c2ccccc2N2CCCC2)c1O	2.28 µM	> 100	7.31	> 100	5.3	24.4	5.45	> 100	2.54	> 100	44.4	> 100	3.73	19.7 µM	2.72	> 100
[Cl][Hg][c]1ccc(Cl)s1	1.78 µM	3.26	–	–	2.45	7.34	0.729	7.29	0.114	0.325	1.56	2.95	1.57	3.46 µM	1.78	3.33

Compound	GI50 (UO-31 renal)	TGI (UO-31 renal) [µM]	GI50 (MDA-MB-231 breast) [µM]	TGI (MDA-MB-231 breast) [µM]	GI50 (SK-MEL-5 melanoma) [µM]	TGI (SK-MEL-5 melanoma) [µM]	GI50 (K-562 leukemia) [µM]	TGI (K-562 leukemia) [µM]	GI50 (NCI-H522 lung) [µM]	TGI (NCI-H522 lung) [µM]	GI50 (RXF 393 renal) [µM]	TGI (RXF 393 renal) [µM]	GI50 (UACC-62 melanoma) [µM]	TGI (UACC-62 melanoma)	GI50 (ACHN renal) [µM]	TGI (ACHN renal) [µM]
CC1(C)CC[C@]2(C(=O)O)CC[C@]3(C)C(=CC[C@@H]4[C@@]5(C)C[C@H](O)[C@H](O)[C@@](C)(C(=O)O)[C@@H]5CC[C@]43C)[C@@H]2C1	–	> 100	–	> 100	–	> 100	–	> 100	–	> 100	–	> 100	–	> 94.2 µM	–	> 100
COc1cc2c(c(OC)c1OC)-c1ccc(OC)c(=O)cc1[C@@H](NC(C)=O)CC2	4.74 µM and 1.09 µM and 1.33 µM	> 625	7.13	> 100	–	–	–	–	–	–	–	–	–	> 100 µM and > 77.4 µM and 91.7 µM	–	> 100
CCCCCCCCCCCCSC1=C(Cl)C(=O)C(OC)=C(OC)C1=O	2.27 µM	11.5	1.86	10.4	0.49	3.66	0.205	> 40	0.379	3.75	4.51	23.1	2.36	17.6 µM	1.52	18.2
O=C(/C(=C/c1ccc([N+](=O)[O-])cc1)SCc1ccc(Cl)cc1)c1ccc(F)cc1	1.96 µM	13.6	2.14	5.98	2.85	8.87	2.45	> 100	1.84	3.76	5.75	18.3	2.27	8.47 µM	1.76	3.33
c1ccc2cc(NCNc3ccc4ccccc4c3)ccc2c1	–	41.6	–	38.9	–	18.5	–	38.8	–	49.5	–	29.9	–	30.7 µM	–	38
CCOC(=O)Nc1nc2ccc(Br)cc2s1	> 50 µM	> 50	> 50	> 50	> 50	> 50	> 50	> 50	> 50	> 50	> 50	> 50	> 50	> 50 µM	> 50	> 50
Cc1cc(Nc2ncc3c(n2)N(C)C(=O)N(c2cc(NC(=O)c4cccc(C(F)(F)F)c4)ccc2C)C3)n(C)n1	0.0583 µM	0.322	0.0255	0.164	0.283	7.87	< 0.01	> 46.4	–	–	0.021	0.171	–	–	0.0281	–
CCCCCCn1c(-c2ccc(C(=O)O/N=C(\N)c3ccc4ccccc4c3)cc2)nc(-c2ccccc2)c1-c1ccccc1	2.17 µM	> 100	17.8	> 100	> 100	> 100	2.42	> 100	24.5	> 100	5.28	29.7	22.6	> 100 µM	–	–
Clc1ccc(Nc2ccnc(N3CCN(c4ccnc5cc(Cl)ccc45)CC3)n2)cc1	1.28 µM	5.61	2.22	7.22	1.81	3.66	2.56	7.94	1.65	4.94	2.35	7.65	1.95	6.97 µM	–	–
COC(=O)C1=CO[C@@H](OC2OC(CO)C(O)C(O)C2O)[C@H]2[C@@H](C)[C@@H](O)[C@@H](O)[C@@H]12 (some centres undefined)	–	> 100	–	> 100	–	> 100	–	–	–	> 100	–	> 100	–	> 100 µM	–	> 100
CCC(C)C1NC(=O)C(CCNCS(=O)(=O)O)NC(=O)C(NC(=O)C(CCNCS(=O)(=O)O)NC(=O)C(NC(=O)C(CCNCS(=O)(=O)O)NC(=O)CCCCC(C)C)C(C)O)CCNC(=O)C(C(C)O)NC(=O)C(CCNCS(=O)(=O)O)NC(=O)C(CCNCS(=O)(=O)O)NC(=O)C(C(C)CC)NC1=O (centres undefined) ({Heptanoyl(6-Me)}-[ξDab(CH2SO3H)]T[ξDab(CH2SO3H)][Dab][ξDab(CH2SO3H)]II[ξDab(CH2SO3H)][ξDab(CH2SO3H)]T; lactam 4-C; configuration not given here)	> 25 µM	> 25	5.82	> 25	1.96	11.4	–	–	3.84	14.1	7.47	> 25	7.44	> 25 µM	> 25	> 25
COc1ccc2c(c1)oc(=O)c1cc(OC)ccc12	32.9 µM	> 100	> 100	> 100	65.2	> 100	> 100	> 100	> 100	> 100	> 100	> 100	63	> 100 µM	–	–
CONC(C)=O	–	> 100	–	> 100	–	> 100	–	> 100	–	> 100	–	–	–	> 100 µM	–	> 100
O=c1[nH]c(=O)c2cc3cc(C4CC(O)C(CO)O4)ccc3cc2[nH]1 (centres undefined)	8.48 µM	67	65.7	> 100	> 100	> 100	> 100	> 100	17.5	87.8	> 100	> 100	> 100	> 100 µM	–	–
N#Cc1c(N)n2c(nc1=Nc1ccc(Cl)cc1)sc1cc(Cl)ccc12	–	–	7.28	71	8	–	> 100	> 100	3.74	–	–	–	2.85	> 100 µM	9	> 100
COc1ccc(Sc2nc3cc(N)cc(N)c3nc2-c2ccccc2)cc1	> 100 µM	> 100	> 100	> 100	24	> 100	9.83	> 100	3.2	> 100	> 100	> 100	38	> 100 µM	–	–
